Test results published in paper PMC11867108, “Design and application of a fluorescent probe for imaging of endogenous Bruton's tyrosine kinase with preserved enzymatic activity” (RSC Chemical Biology, 2025).

Tests used:
[1] = target: T1, Bruton's tyrosine kinase (BTK) (Homo sapiens, UniProt Q06187); assay: in-gel fluorescence under denaturing conditions (covalent labelling); ADP-Glo IC50; assay type: biochemical
T1 construct: full-length recombinant BTK

[2] = target: T1, Bruton's tyrosine kinase (BTK); assay: LC-MS/MS of tryptic peptide […]-487 and in-gel fluorescence; ADP-Glo IC50; immunoprecipitation from Ramos cells; assay type: biochemical

T1 sequence (Q06187 2-659): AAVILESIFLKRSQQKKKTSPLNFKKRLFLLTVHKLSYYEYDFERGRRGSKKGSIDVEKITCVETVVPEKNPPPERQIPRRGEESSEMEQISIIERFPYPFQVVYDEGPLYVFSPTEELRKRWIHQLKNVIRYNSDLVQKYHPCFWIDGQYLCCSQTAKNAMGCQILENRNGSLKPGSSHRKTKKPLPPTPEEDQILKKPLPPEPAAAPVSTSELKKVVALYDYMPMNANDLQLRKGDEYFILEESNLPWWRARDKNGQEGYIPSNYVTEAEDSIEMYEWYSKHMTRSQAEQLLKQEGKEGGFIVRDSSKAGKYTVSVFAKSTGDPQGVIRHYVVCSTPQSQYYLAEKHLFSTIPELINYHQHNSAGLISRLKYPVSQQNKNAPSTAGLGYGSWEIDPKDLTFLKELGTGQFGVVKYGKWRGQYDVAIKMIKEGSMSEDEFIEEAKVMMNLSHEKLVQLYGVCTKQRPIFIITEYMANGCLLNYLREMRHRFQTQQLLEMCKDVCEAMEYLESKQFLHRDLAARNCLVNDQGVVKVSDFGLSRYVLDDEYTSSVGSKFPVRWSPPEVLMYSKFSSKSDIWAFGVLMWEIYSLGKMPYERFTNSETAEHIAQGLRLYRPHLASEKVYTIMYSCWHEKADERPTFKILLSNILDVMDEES

Structure (SMILES) | IC50 [1] [µM] | IC50 [2] [µM]
C=C(CN1CCC(CNc2ncnc(N)c2-c2ccc(Oc3ccccc3)cc2)CC1)C(=O)NCCNC(=O)CCC1=[N+]2C(=Cc3c(C)cc(C)n3[B-]2(F)F)C=C1 [Evo-1] | 7.61 | –
C=C(CN1CCC(CNc2ncnc(N)c2-c2ccc(Oc3ccccc3)cc2)CC1)C(=O)N1CCC(NC(=O)CCC2=[N+]3C(=Cc4c(C)cc(C)n4[B-]3(F)F)C=C2)CC1 [Evo-2] | – | > 10
